We go through four molecules from US4143010A, “High retention wood preservative composition” (Canadian Patents and Development Limited, priority 1978, dated 1979).

Converted amounts (≈) assume the structure as drawn. Where two headings read alike, the source gives them in different places.

Series [1] is described as follows: Accelerated sublimation test of deposits on glass under vacuum. The class given is physicochemical. The following applies: room temperature. The source says:
In order to determine the influence of chemical components in the preservative composition on loss of preservative (PCP) under accelerated sublimation conditions, three solutions have been prepared, separately, in carbon tetrachloride as a solvent (in percent w/v).
I. solution: PCP (3.5%) as a preservative.
Ii. solution; PCP (3.5%) and stearic acid (3.5%) as the hydrophobic agent.
III. Solution: PCP (3.5%) stearic acid (3.5%) and polystyrene (0.7%) as the organic polymer.
The same volume of each solution (0.07 ccm/sq.in.) has been poured on the surface of glass template and the solent evaporated at room temperature leaving solid deposits of each sample. Then these deposits of the 3 different preservative compositions (I--II--III), in which the amount of preservative (PCP) was the same, were exposed to vacuum at room temperature in order to accelerate the loss of components. The loss of weight of each single deposit was checked periodically and is expressed in FIG. 1 in percent of original weight of preservative (PCP).

Series [2] is described as follows: Hydrophobicity (contact angle of water drops) of treated red pine. The class given is physicochemical. The following applies: contact angle 180°. Here is the method:
The same solutions of preservative compositions (I--II--III), as in Example I have been used for impregnation of red pine wood samples in order to determine the effect on hydrophobicity of wood. After the samples of wood have been fully saturated by solutions I--II--III, the solvent was then evaporated at room temperature during the next 24hours, leaving solid deposits of the components in the wood. Measurements of contact angles of the surface of water drops on pertinent wood samples were made to show the relative hydrophobicity. The sooner the water soaks in the surface of wood (contact angle 180°) the lower the hydrophobicity of wood and vice versa.

The nature of series [3]: Immobilization of PCP in spruce microsections, vacuum exposure and microscopy. The class given is physicochemical. The source says:
From both samples, microsections were cut from the wood tissues, approximately 0.35 -0.37 inch from the surface in the radial direction, i.e. within the area, where the PCP was positively detected by previous staining. Numerous microscopic sections (transverse) were made from both samples (A and B) separately. From each of both groups of microsections, typical sections were again microscopically stained with a Silver-Copper complex (which is the basis of the "Penta-Check") to detect again PCP in the microsections. Other typical unstained microsections were mounted into microscopic slides and without any staining examined microscopically. On the viewed microsections of treated wood typical spots were selected where the cell obviously contained significant deposits of PCP, and photographed, at the same magnification. Photographed microsections from sample A and B were then carefully removed from the slides, gently dried off by a touch of absorbent paper at the corner of the microsections, and transferred into a vacuum desiccator by a micromanipulator. The desiccator was then closed and very slowly evacuated. When the vacuum reached 29.5 inch Hg, the desiccator was sealed and the microsections left for 7 days ([…]). Then the desiccator, still at 27 inch vacuum, was slowly filled with air, opened and the microsections transferred onto glass slides and mounted for microscopic examination. This exposure under the same vacuum conditions (29.5 -27 inch Hg) for 7 days gave accelerated sublimation of PCP. The accelerated vacuum test is considered as an accurate simulation of the effect of ordinary atmosphere for an extended time. The microscopic slides were carefully examined, the same spot of each microsection was found (as photographed before vacuum exposure) and rephotographed (at the same magnification) for comparison.
Two pairs of photomicrographs are shown as FIGS. 1 (a ) and 1 (b ), and as FIGS. 2 (a ) and 2 (b ), being typical of observations of as many as 50 microsections. […]

A further series in a line: Leaching resistance test. The class given is physicochemical. The following applies: for increase of leaching resistance due to additives: with additives versus without. Here is the method: Solution I 5% w/v D-18 in chloroform
Solution II 5% w/v D-20 in chloroform
1.0% w/v polystyrene in chloroform
Solution IV same as III but with 5% w/v D-20.
uptake of preservative was calculated from the weight increase. Chloroform solvent was removed from the samples by air drying followed by drying in the oven at 105° C. for 4 hours. Each sample was leached with a standard volume of distilled water at room temperature. Every two hours the water surrounding each sample was removed for spectrophotometric measurement and was replaced by another standard volume of fresh distilled water. Total leaching time was 140 hours. The concentration of D18 and D20 in the leach water was determined by comparing specific absorbance in UV light with the absorbance of known concentrations of D18 and D20 in water. The leached amount of D18 and D20 was recalculated as a percent of the original amount impregnated into the samples before leaching.

The subject of series [4] is Lenzites trabea. As to the kind of experiment: Effectiveness against decay fungi on spruce sections. The following applies: for Average Percentage of Wood Area Colonized: 19 days at 27° C. Format: cell-based, Lenzites trabea (S644). Here is the method:
(§1) The fungicidal activity of these compositions was determined in an accelerated experiment with the wood-rotting basidiomycetes Lenzites trabea (S644), Coniophora puteana (A302) and Poria monticola (A384) as test fungi. Small cross-the-grain sections of spruce wood (Picea glauca, a refractory species) were cut 40 microns thick on a microtome. All treatment specimens (0.5 × 0.5 inch) were cut from the same block of wood and were therefore homogeneous in nature. Wood specimens were treated to different retention levels with the active ingredients D18 or D20 with or without the additives. Two of each treatment series were placed on sterilized glass microscopic cover slips (22 mm^2) which were then deposited upon cultures of actively growing decay fungi in Petri dishes. Cultures were grown on a 2% malt extract, 2% agar medium. Two untreated specimens were included in each culture dish as controls. Treatment series were 0.1, 0.5 and 1.75 pcf. Incubation was for 19 days at 27° C. Each test was done in duplicate. Evaluation of the treated samples was made using a stereoscopic microscope (× 10.5 magnification). The percentage of the surface area of each specimen colonized by the test fungus was determined. The smaller the colonized surface area on each wood specimen, the more efficient the preservative composition used for specimen treatment.

The subject of the next series is Coniophora puteana. Described as above. The class given is cell-based, Coniophora puteana (A302). To be noted: 19 days at 27° C. Here is the method:
as §1

Series [5] concerns Poria monticola. The series is described as above. The class given is cell-based, Poria monticola (A384). To be noted: for Average Percentage of Wood Area Colonized: 19 days at 27° C. Here is the method:
as §1

The subject of series [6] is Poria monticola. Description: Soil-block culture decay test after leaching. Format: cell-based. To be noted: leached samples. The source says: 5% (w/cv) D18 in chloroform and
5% (w/v) D18 with 1.4% wax and 1% polystyrene in chloroform solution.
After solvent removal by slow air drying and a short period of oven drying both series of samples were exposed to leaching in water under the same conditions (time of exposure, temperature and volume of water for leaching). […] After leaching the samples were further tested for toxicity against a wood-decaying fungus in a modified standard method of testing wood preservatives by laboratory soil-block cultures. Five untreated controls and 5 samples from each preservative series were put into soil jars on wooden feeder blocks inoculated with a standard test fungus Poria monticola. […] Jars were located in an incubation room maintained at 80° F. and 70% R.H. and were opened one by one in five consecutive time intervals, after 25 -- 32 -- 39 -- 46 and 65 days incubation. Wood specimens taken from the jars were oven dried and the weight loss due to decay calculated.

A short description of series [7]: Test of solubility of oxathiins and additives in various solvents. The class given is physicochemical. From the text:
Table 5 is a solubility chart summarizing a list of organic solvents solubilizing oxathiins and the two additives which can be applied in the same solution.

The subject of series [8] is Lenzites trabea. To be noted: wood preservative threshold; cited from earlier work.
Where [9] appears, read: retention 0.1 pcf, * = mycelia extended over the top but did not colonize all substrate underneath.
Setting [10] is: water, read-out: Solubility in water.

Turning to `Oc1c(Cl)c(Cl)c(Cl)c(Cl)c1Cl` [PCP, pentachlorophenol], in [1] (deposit on glass under vacuum, % of original weight of PCP (FIG. 1)), the “loss of PCP” value turned out to be 99%. Further, in series [2], the “time for water to soak into wood surface” value is no more than 40 s. Moreover, in [3] (164 hours, 29.5-27 inch Hg), the “PCP retention after vacuum exposure” value is on record as “had disappeared after vacuum exposure”. Also, in series [3] (microscopic sections), the “water repellency of microsections” value was “not highly water repellent”. Besides, the “distribution of PCP in the cells” value in series [3] (microscopic staining) is recorded as “deposited on the cell walls in individual spots”.

Regarding `CC1=C(C(=O)Nc2ccccc2)SCCO1` [Solution D18, 2,3-dihydro-5-carboxanilido-6-methyl-1,4-oxathiin], the “Cumulative Percent Preservative Leached from Wood” value in “Leaching resistance test” (10 hours of exposure) is reported as 14%; in the series “Leaching resistance test” (30 hours of exposure), 27%; in “Leaching resistance test” (70 hours of exposure), 43%; in “Leaching resistance test” (140 hours of exposure), 56%. Further, in “Leaching resistance test”, the “increase of leaching resistance due to additives” value is 51-57%. For the same molecule, the “Average Percentage of Wood Area Colonized” value (“Average Percentage” for short) with Lenzites trabea [4] (setting [9]) was determined as 25 Percentage; in the series on Lenzites trabea [4] (retention 0.5 pcf) it was 0 Percentage; with Lenzites trabea [4] (retention 1.75 pcf), 0 Percentage; with Coniophora puteana (retention 0.1 pcf) it was 30 Percentage; in the series with Coniophora puteana (retention 0.5 pcf) it was 5 Percentage; in the series with Coniophora puteana (retention 1.75 pcf), 5 Percentage. Also, the figures for the “Average Percentage” value in the series on Poria monticola [5] (setting [9]), with Poria monticola [5] (retention 0.5 pcf) and in the series on Poria monticola [5] (retention 1.75 pcf) were 40 Percentage, 0 Percentage and 0 Percentage, respectively. In addition, the “Cumulative Percent Weight Loss Due to Decay” value came out at 2% in the series on Poria monticola [6] (25 days of incubation); 4% with Poria monticola [6] (32 days of incubation); 6% with Poria monticola [6] (39 days of incubation); 10% with Poria monticola [6] (46 days of incubation); 21% with Poria monticola [6] (65 days of incubation). In addition, the solubility (commonly how much of the substance goes into solution per volume) in series [7] (setting [10]) worked out at 170 µg/mL (≈ 722 µM). For the same molecule, the known threshold level with Lenzites trabea [8] was 1.1 mg/mL.

On to `CC1=C(C(=O)Nc2ccccc2)S(=O)(=O)CCO1` [Solution D20], for which the “Cumulative Percent Preservative Leached from Wood” value in “Leaching resistance test” (10 hours of exposure) amounted to 10%; in “Leaching resistance test” (30 hours of exposure), 38%; in the series “Leaching resistance test” (70 hours of exposure), 54%; in “Leaching resistance test” (140 hours of exposure), 61%. Besides, in the series “Leaching resistance test”, the “increase of leaching resistance due to additives” value is 17-27%. Besides, the “effect of additives on effectiveness” value in the series on Lenzites trabea [4] and in the series with Poria monticola [5] was “increase in the effectiveness of D20 due to the additives” in each case. The “Average Percentage” value in the series on Lenzites trabea [4] (setting [9]) is on record as 50 Percentage; in the series with Lenzites trabea [4] (retention 0.5 pcf) it was 0 Percentage; in the series on Lenzites trabea [4] (retention 1.75 pcf) it was 0 Percentage; with Coniophora puteana (retention 0.1 pcf) it was 40 Percentage; in the series with Coniophora puteana (retention 0.5 pcf), 10 Percentage; with Coniophora puteana (retention 1.75 pcf), 10 Percentage. Also, the “Average Percentage” value was 50 Percentage in the series with Poria monticola [5] (setting [9]), 15 Percentage with Poria monticola [5] (retention 0.5 pcf) and 10 Percentage in the series on Poria monticola [5] (retention 1.75 pcf). Moreover, the figures for the solubility entry in series [7] (Carbon tetrachloride), in series [7] (Perchloroethylene) and in series [7] (setting [10]) were “- (+)”, “- (+)” and 1000 µg/mL (≈ 3740 µM), respectively.

Consider `CCCCCCCCCCCCCCCCCC(=O)O` [stearic acid], for which the “reduction of PCP sublimation compared to the control” value in series [1] (vacuum, control = PCP alone) was determined as 34%.
